This note sets out measurements from patent US9693997B2, “Antiviral compounds” (priority 2013, dated 2017).

Where a name gives a salt, the structure may show the parent alone. Read-outs that look alike come from different tables or passages of the source.

Assay [1] deals with pseudotyped VSV G particles (VSVpp) in Huh7-high CD81 cells. The assay is described as follows: microbe, parasite or virus in culture. It counts as cell-based, vesicular stomatitis virus.
Assay [2] concerns Pseudotyped HCV GT1b particles (HCVpp), entry into Huh7-high CD81 cells. The assay is described as follows: microbe, parasite or virus in culture. It counts as cell-based, HCV GT1b Con1 strain.
Where [3] appears, read: Vesicular stomatitis virus, 72 h, read-out: VSVpp (EC50, μM).
Setting [4] is: Hepatitis C virus, GT1B, 72 h, read-out: HCVpp GT-1b (EC50, μM).

As to `CC(C)(C)OC(=O)N1CC(S(=O)(=O)c2ccc(-c3c(Cl)cc(Nc4n[nH]c(N)n4)cc3C(F)(F)F)cc2)C1` [Compound 59, 3-[4′-(5-Amino-1H-[1,2,4]triazol-3-ylamino)-6′-chloro-2′-trifluoromethyl-biphenyl-4-sulfonyl]-azetidine-1-carboxylic acid tert-butyl ester], the EC50 in assay [1] (setting [3]) amounted to 5.78 µM; in assay [2] (setting [4]) it was 0.008 µM.
For `CC(C)(C)NS(=O)(=O)c1cc(-c2c(Cl)cc(Nc3n[nH]c(N)n3)cc2C(F)(F)F)ccc1OC(F)(F)F` [Compound 193, 4′-(5-amino-1H-1,2,4-triazol-3-ylamino)-N-tert-butyl-2′-chloro-4-(trifluoromethoxy)-6′-(trifluoromethyl)biphenyl-3-sulfonamide], the EC50 is 4.97 µM in assay [1] (setting [3]) and 0.075 µM in assay [2] (setting [4]).
For `CC1(O)CCN(S(=O)(=O)c2ccc(-c3c(Cl)cc(Nc4n[nH]c(N)n4)cc3C(F)(F)F)cc2)C1` (centres unmarked) [Compound 68, 1-[4′-(5-Amino-1H-[1,2,4]triazol-3-ylamino)-6′-chloro-2′-trifluoromethyl-biphenyl-4-sulfonyl]-3-methyl-pyrrolidin-3-ol] the same measures were 8.73 µM and 0.05 µM.
Take `Nc1nc(Nc2cc(Cl)c(-c3cccc(S(=O)(=O)N4CCCC4)c3)c(C(F)(F)F)c2)n[nH]1` [Compound 192, N3-(2-chloro-3′-(pyrrolidin-1-ylsulfonyl)-6-(trifluoromethyl)biphenyl-4-yl)-1H-1,2,4-triazole-3,5-diamine]: the EC50 in assay [1] (setting [3]) stood at 17.2 µM; in assay [2] (setting [4]) it was 0.084 µM.
As to `CC(C)(C)OC(=O)NCCOc1ccc(-c2c(Cl)cc(Nc3n[nH]c(N)n3)cc2C(F)(F)F)cc1` [Compound 134, {2-[4′-(5-Amino-1H-[1,2,4]triazol-3-ylamino)-6′-chloro-2′-trifluoromethyl-biphenyl-4-yloxy]-ethyl}-carbamic acid tert-butyl ester], the half-maximal effective concentration (EC50) in assay [1] (setting [3]) is greater than 10 µM; in assay [2] (setting [4]), 0.081 µM.
As to “4′-(5-amino-1H-1,2,4-triazol-3-ylamino)-2′-chloro-3-methoxy-N-(piperidin-4-yl)-6′-(trifluoromethyl)biphenyl-4-sulfonamide hydrochloride [Compound 178]”, the concentration for a half-maximal effect (EC50) is greater than 10 µM in assay [1] (read-out: VSVpp (EC50)) and 0.023 µM in assay [2] (read-out: HCVpp GT-1b (EC50)).
For `Nc1nc(Nc2cc(Cl)c(-c3ccc(S(=O)(=O)C4CCNCC4)cc3)c(C(F)(F)F)c2)n[nH]1` [Compound 20, N3-(2-chloro-4′-(piperidin-4-ylsulfonyl)-6-(trifluoromethyl)biphenyl-4-yl)-1H-1,2,4-triazole-3,5-diamine hydrochloride], the 50% effective concentration (EC50) in assay [1] (setting [3]) was 3.46 µM; in assay [2] (setting [4]) it was 0.053 µM.
Turning to `Nc1nc(Nc2cc(Cl)c(-c3ccc(C(=O)O)cc3)c(C(F)(F)F)c2)n[nH]1` [Compound 202, 4′-(5-amino-1H-1,2,4-triazol-3-ylamino)-2′-chloro-6′-(trifluoromethyl)biphenyl-4-carboxylic acid 2,2,2-trifluoroacetate], the concentration for a half-maximal effect (EC50) in assay [1] (setting [3]) is greater than 10 µM; in assay [2] (setting [4]), 1.25 µM.
For `CC(C)(C)OC(=O)N1CCCC1CCOc1ccc(-c2c(Cl)cc(Nc3n[nH]c(N)n3)cc2Cl)cc1` (centres unmarked) [Compound 266, 2-{2-[4′-(5-Amino-1H-[1,2,4]triazol-3-ylamino)-2′,6′-dichloro-biphenyl-4-yloxy]-ethyl}-pyrrolidine-1-carboxylic acid tert-butyl ester] the same measures were greater than 10 µM and 0.103 µM.
For `CS(=O)(=O)c1ccc(-c2ccc(Nc3n[nH]c(N)n3)cc2S(F)(F)(F)(F)F)cc1` [Compound 288, N*3*-(4′-Methanesulfonyl-2-pentafluorosulfur-biphenyl-4-yl)-1H-[1,2,4]triazole-3,5-diamine] the same measures were 8.93 µM and 1.23 µM.
For `CN(CCOc1ccc(-c2c(Cl)cc(Nc3n[nH]c(N)n3)cc2C(F)(F)F)cc1)C(=O)OC(C)(C)C` [Compound 125, {2-[4′-(5-Amino-1H-[1,2,4]triazol-3-ylamino)-6′-chloro-2′-trifluoromethyl-biphenyl-4-yloxy]-ethyl}-methyl-carbamic acid tert-butyl ester] the same measures were greater than 10 µM and 0.096 µM.
As to `Nc1nc(Nc2cc(Cl)c(-c3ccc(C(=O)NCCO)c(F)c3)c(C(F)(F)F)c2)n[nH]1` [Compound 293, 4′-(5-amino-1H-1,2,4-triazol-3-ylamino)-2′-chloro-3-fluoro-N-(2-hydroxyethyl)-6′-(trifluoromethyl)biphenyl-4-carboxamide], the EC50 in assay [1] (setting [3]) is 15.7 µM; in assay [2] (setting [4]) it was 0.139 µM.
Regarding `CN(C)S(=O)(=O)c1cccc(-c2c(F)cc(Nc3nc(N)n[nH]3)cc2C(F)(F)F)c1` [Compound 84, 4′-(5-Amino-2H-[1,2,4]-triazol-3-ylamino)-6′-fluoro-2′-trifluoromethyl-biphenyl-3-sulfonic acid dimethylamide], the EC50 in assay [1] (setting [3]) is 16.8 µM; in assay [2] (setting [4]), 0.43 µM.
For `CS(=O)(=O)NCc1cccc(-c2c(Cl)cc(Nc3n[nH]c(N)n3)cc2C(F)(F)F)c1` [Compound 199, N-((4′-(5-amino-1H-1,2,4-triazol-3-ylamino)-2′-chloro-6′-(trifluoromethyl)biphenyl-3-yl)methyl)methanesulfonamide] the same measures were 31.8 µM and 0.196 µM.
For `COc1ccc(-c2c(F)cc(Nc3nc(N)n[nH]3)cc2C(F)(F)F)cc1` [Compound 86, N^5-[6-Fluoro-4′-methoxy-2-trifluoromethylbiphenyl-4-yl]-1H-[1,2,4]-triazole-3,5-diamine] the same measures were 8.87 µM and 0.525 µM.
For `CS(=O)(=O)N1CCOc2ccc(-c3c(Cl)cc(Nc4n[nH]c(N)n4)cc3C(F)(F)F)cc21` [Compound 44, N*3*-[3-Chloro-4-(4-methanesulfonyl-3,4-dihydro-2H-benzo[1,4]oxazin-6-yl)-5-trifluoromethyl-phenyl]-1H-[1,2,4]triazole-3,5-diamine] the same measures were 4.92 µM and 0.236 µM.
Regarding `CC(C)(C)OC(=O)N1CCN(S(=O)(=O)c2ccc(-c3c(Cl)cc(Nc4n[nH]c(N)n4)cc3C(F)(F)F)cc2)CC1` [Compound 16, 4-[4′-(5-Amino-1H-[1,2,4]triazol-3-ylamino)-2′-chloro-6′-trifluoromethyl-biphenyl-4-sulfonyl]-piperazine-1-carboxylic acid tert-butyl ester], the values for the EC50 in assay [1] (setting [3]) and in assay [2] (setting [4]) were greater than 10 µM and 0.03 µM, respectively.
For `CC1(NS(=O)(=O)c2ccc(-c3c(Cl)cc(Nc4n[nH]c(N)n4)cc3C(F)(F)F)cc2)CN(C(=O)OC(C)(C)C)C1` [Compound 205, tert-butyl 3-(4′-(5-amino-1H-1,2,4-triazol-3-ylamino)-2′-chloro-6′-(trifluoromethyl)biphenyl-4-ylsulfonamido)-3-methylazetidine-1-carboxylate] the same measures were 9.26 µM and 0.011 µM.
Regarding `CC(C)CS(=O)(=O)c1ccc(-c2c(Cl)cc(Nc3n[nH]c(N)n3)cc2C(F)(F)F)cc1` [Compound 65, N*3*-[6-Chloro-4′-(2-methyl-propane-1-sulfonyl)-2-trifluoromethyl-biphenyl-4-yl]-1H-[1,2,4]triazole-3,5-diamine], the values for the half-maximal effective concentration (EC50) in assay [1] (setting [3]) and in assay [2] (setting [4]) were greater than 10 µM and 0.026 µM, respectively.
